US8097585B2, “Methods of treating inflammation by administration of heme oxygenase-1 and products of heme degradation” (priority 2002, dated 2012)
Counter-ions that a name gives are not always drawn.

Key:
SITx recipients = assay: Animal survival after SITx with 6 hours cold preservation; type: in vivo, LEW rats; details: 14 days follow-up; 8/8; saline control 57.1%
Experimental: Small Intestinal Transplantation. Orthotopic small intestinal transplantation (SITx) was performed in syngeneic Lewis rats. SITx with caval drainage was performed using a previously described procedure (Murase et al., in Handbook of Animal Models in Transplantation Research, Cramer et al., Eds. CRC Press, Boca Raton, Fla., pp. 203-213 (1994)). […] The graft was perfused via the aortic segment with 5 ml chilled Ringer's lactate solution, and the intestinal lumen was irrigated with 20 ml of cold saline solution containing 0.5% neomycin-sulfate (Sigma, St. Louis, Mo.). End-to-side anastomoses between the graft aorta and the recipient infrarenal aorta, and between the graft portal vein and recipient vena cava, were performed with 10-0 Novafil™ suture. […] The entire recipient intestine was removed and the enteric continuity was restored by proximal and distal end-to-end intestinal anastomoses. Recipient animals were given 20 mg/day prophylactic cefamandole nafate for 3 postoperative days. Transplanted recipients were given water 3 hours after surgery, and were fed 24 hours after surgery.
Animal survival. Six hours of cold preservation in UW of the intestinal graft induced intestinal dysfunction in untreated recipients; 3 out of 14 control animals died within 24 hours and an additional 3 animals died 5 and 7 days after SITx due to bowel obstruction secondarily to intestinal I/R injury. […]

MnSOD = assay: Real time RT-PCR of graft muscularis after SITx, MnSOD; type: in vivo, LEW rats; details: BV treatment
Experimental: Small Intestinal Transplantation. Orthotopic small intestinal transplantation (SITx) was performed in syngeneic Lewis rats. SITx with caval drainage was performed using a previously described procedure (Murase et al., in Handbook of Animal Models in Transplantation Research, Cramer et al., Eds. CRC Press, Boca Raton, Fla., pp. 203-213 (1994)). […] The graft was perfused via the aortic segment with 5 ml chilled Ringer's lactate solution, and the intestinal lumen was irrigated with 20 ml of cold saline solution containing 0.5% neomycin-sulfate (Sigma, St. Louis, Mo.). […]
SYBR green real time RT-PCR. The effects of administration of biliverdin on transplant-induced pro-inflammatory and anti-inflammatory gene expression were assessed in muscularis extracts by RT-PCR Biliverdin ([…], i.p.) was administered to both the donor and recipient three hours preoperatively. […] Equal aliquots (5 μg) of total RNA from each sample were quantified by spectrophotometry (wavelength […]) and aliquoted at a concentration of 40 ng/μl. Peak mRNA expression was quantified in duplicate by SYBR Green two-step, real-time RT-PCR. […] Real-time PCR data were plotted as the ΔRn fluorescence signal versus the cycle number. […] Quantification of mRNA expression was normalized to GAPDH and calculated relative to control using the comparative CT method (Schmittgen et al., J. Biochem. Biophys. Methods 46(1-2):69-8, 2000). […]

In the case of `C=CC1=C(C)/C(=C/C2=NC(=C\c3[nH]c(/C=C4\NC(=O)C(C)=C4C=C)c(C)c3CCC(=O)O)/C(CCC(=O)O)=C2C)NC1=O` [biliverdin, biliverdin dihydrochloride], the overall animal survival (SITx recipients) is reported as 100% and the “MnSOD expression in the graft” value (MnSOD) is reported as “significantly reduced”.
